Reference: patent publication US9018260B2, “Indanesulfamide derivatives” (Eisai R&D Management Co., Ltd., priority 2012, dated 2015)

Assays:
[1] = test system: amygdala kindled male Wistar Kyoto rats; assay: Rat amygdala kindling model; assay type: in vivo; settings: oral, 60 minutes after administration; FIGS. 1 to 3
Procedure: Male Wistar Kyoto rats (Charles River Japan) were used for the experiment. For implantation of kindling electrodes, rats were anesthetized with pentobarbital (65 mg/kg i.p.) and a tripolar electrode was implanted into the right hemisphere aimed at the basolateral amygdala using the coordinates derived from the atlas of Paxinos and Watson. Electrical stimulation of the amygdala was initiated following a recovery period of one week after surgery. […]
The threshold for induction of amygdala after discharges (ADT), i.e., epileptiform spikes on electroencephalogram (EEG), was measured for anti-seizure potency of compounds. In fully kindled rats, the ADT was determined by administering a series of stimulations beginning at […] and increasing in steps of about 25% of the previous current. […]
In the afternoon, test compounds were dissolved in the vehicle (a 1:1:1 mixture of polyethylene glycol 200, distilled water and DMSO), then orally administered to rats. […] The ADT was determined again 60 minutes after administration of drugs. The % of pre-value (morning results) was determined for each rat. Results were expressed as mean±SEM and analyzed by Dunnett's multiple comparisons test. […]

[2] = test system: male ddY mice; assay: Rota rod test; assay type: in vivo, mouse; settings: route p.o.; TD50 in rota rod test divided by ED50 in corneal kindling model
Procedure: (§1) Rotarod apparatus (Rota-rod MK-660C, Muromachi-Kikai Co., Ltd.) was used for measurement. The motor was turned on and the rod rotation was continuously accelerated to a rate of 40 rpm over 180 sec.
(§2) Male ddY mice at an age of 5 weeks (Japan SLC) were used. On the experiment day, the mice were pretrained and only the animals able to remain on the rod for at least 60 s were selected for experiment.
(§3) Test compounds were dissolved in the vehicle (0.45% methyl cellulose/4.5% cremophor/10% dimethyl sulfoxide), then orally (p.o.) administered to mice. The vehicle was orally administered as controls. The effects of compounds were studied in groups of six to ten animals.
(§4) Latency for mice to fall off from the rod was measured. The toxic dose at which fall off latency shorten by 50% of vehicle control value (TD50) was calculated.
(§5) Therapeutic index were calculated by dividing the respective TD50 value in rota rod test by the ED50 value determined in the corneal kindling model.

[3] = Rota rod test; assay type: in vivo, mouse; settings: male, ddY, mouse, in vivo, po; dose at which fall off latency shorten by 50% of vehicle control value
Procedure: as §1, §2, §3, §4, §5

[4] = test system: corneal kindled male C57Bl/6 mice; assay: Mouse corneal kindling model; assay type: in vivo; settings: for ED50: Mus musculus, dosage where 50% of animals showed seizure severity score 2 or less; for Seizure severity score (Average): Racine's scale
From the text: Male C57Bl/6 mice were stimulated twice daily for 10 days. The electric-stimulations with current intensities of 4.0 mA and duration of 3 s (pulse frequency 50 Hz) were applied via corneally placed saline-soaked copper electrodes.
Seizure severity was ranked according to a modified scoring system of the Racine's scale (Clin. Neurophysiol. 1972:32:281-294): Score 1, mild facial clonus and eye blinking; 2, severe facial clonus, head nodding, chewing; 3, unilateral or alternating forelimb clonus; 4, bilateral forelimb clonus with rearing; 5, bilateral forelimb clonus with rearing and falling; 6, tonic fore- and/or hindlimb extension. The fully kindled animals with the severity score 4 or more were used for evaluation.
Test compounds were dissolved in the vehicle (0.45% methyl cellulose/4.5% cremophor/10% DMSO), then orally (p.o.) or intraperitoneally (i.p.) administered to mice. The vehicle was orally administered as controls.
Electric stimulation was applied at 1 hour after p.o. or 20 minutes after i.p administration. Stimulation parameters were the same as during the kindling process. After electric stimulation, seizure severity was recorded for 30 seconds according to the Racine's scale.
Four to ten animals were used for calculation of average seizure severity score at each dose.

[5] = test system: male ddY mice; assay: Rota rod test; assay type: in vivo, mouse; settings: route i.p; TD50 in rota rod test divided by ED50 in corneal kindling model
[6] = Rota rod test; assay type: in vivo, mouse; settings: male, ddY, mouse, in vivo, intraperitoneal; route i.p; dose at which fall off latency shorten by 50% of vehicle control value
[7] = dose 10 mg/kg, p.o., stimulation 1 hour after administration
[8] = dose 25 mg/kg, p.o., stimulation 1 hour after administration
[9] = dose 50 mg/kg, p.o., stimulation 1 hour after administration
[10] = dose 10 mg/kg, i.p., stimulation 20 minutes after administration
[11] = dose 25 mg/kg, i.p., stimulation 20 minutes after administration

Structure (SMILES)	after-discharge threshold (ADT), % of pre-value [1]	Therapeutic index [2]	TD50 [3]	ED50 ([4]; po)	Seizure severity score (Average) [4, 7]	Seizure severity score (Average) [4, 8]	Seizure severity score (Average) [4, 9]	ED50 ([4]; ip, route i.p)	Seizure severity score (Average) [4, 10]	Seizure severity score (Average) [4, 11]	Therapeutic index [5]	TD50 [6]
NS(=O)(=O)NC1c2c(Cl)cc(F)cc2CC1(F)F (single isomer, unassigned; (-)) [Example 6, (−)-N-(7-chloro-2,2,5-trifluoro-2,3-dihydro-1H-inden-1-yl)sulfamide]	dose-dependent elevation of after-discharge threshold	30.1	307 mg/kg	10.2 mg/kg	1	0	0.25					
NS(=O)(=O)NC1c2c(Cl)cccc2CC1(F)F (single isomer, unassigned; (-)) [Example 8, (−)-N-(7-chloro-2,2-difluoro-2,3-dihydro-1H-inden-1-yl)sulfamide]								10.6 mg/kg	3	0	11.2	119 mg/kg
NS(=O)(=O)N[C@H]1c2c(F)ccc(F)c2CC1(F)F [Example 2, N-[(1S)-2,2,4,7-tetrafluoro-2,3-dihydro-1H-inden-1-yl]sulfamide]		>13.0	> 200 mg/kg	15.4 mg/kg	4	0	0					
Cc1cccc2c1[C@H](NS(N)(=O)=O)C(F)(F)C2 [Example 11, N-[(1S)-2,2-Difluoro-7-methyl-2,3-dihydro-1H-inden-1-yl]sulfamide]	dose-dependent elevation of after-discharge threshold	26.4	132 mg/kg	5 mg/kg	0.5	0						
Cc1cc(F)cc2c1[C@H](NS(N)(=O)=O)C(F)(F)C2 [Example 12, N-[(1S)-2,2,5-Trifluoro-7-methyl-2,3-dihydro-1H-inden-1-yl]sulfamide]		25.5	143 mg/kg	5.6 mg/kg	0	0						
NS(=O)(=O)N[C@H]1CCc2c(F)ccc(F)c21 [Example 19, N-[(1S)-4,7-difluoro-2,3-dihydro-1H-inden-1-yl]sulfamide]		19.0	235 mg/kg	12.4 mg/kg	2	0						
NS(=O)(=O)N[C@H]1CCc2cc(F)cc(Cl)c21 [Example 21, N-[(1S)-7-chloro-5-fluoro-2,3-dihydro-1H-inden-1-yl]sulfamide]		22.1	234 mg/kg	10.6 mg/kg					4.25	2		
NS(=O)(=O)NC1CCc2ccccc21 (stereo not drawn) [Reference compound, reference compound]		5.27	211 mg/kg	40 mg/kg	4.67	3.17	1.33					
